The numbers were not newly measured in publication PMC3720659, “Integrated Analysis of Drug-Induced Gene Expression Profiles Predicts Novel hERG Inhibitors” (PLoS ONE, 2013), which cites them from elsewhere.

Where a name gives a salt, the structure may show the parent alone.

The first data set has as its system hERG current. The conditions noted are these: cited from earlier work.
In the case of `O=c1cc(-c2ccc(O)cc2)oc2cc(O)cc(O)c12` [apigenin], the “Annotation (hERG Active / Inactive)” value is given as “Inactive”.
In the case of `COc1ccc(CCN2CCC(Nc3nc4ccccc4n3Cc3ccc(F)cc3)CC2)cc1` [astemizole], the “Annotation (hERG Active / Inactive)” value is listed as “Active”.
For the compound `OC(c1ccccc1)(c1ccccc1)C1CCNCC1` [azacyclonol], the “Annotation (hERG Active / Inactive)” value is listed as “Inactive”.
As for `CN/C(=N/CCSCc1nc[nH]c1C)NC#N` [cimetidine], the “Annotation (hERG Active / Inactive)” value is reported as “Inactive”.
For `Clc1ccc(Cn2c(CN3CCCC3)nc3ccccc32)cc1` [clemizole], the “Annotation (hERG Active / Inactive)” value is given as “Active”.
As to `CC(C)(C)NCC(O)c1cc(Cl)c(N)c(Cl)c1` (stereo not shown) [clenbuterol], the “Annotation (hERG Active / Inactive)” value is listed as “Inactive”.

Staying with this data set, now noted: hERG annotation of the drug; the Cell Line (HL60, MCF7, PC3) names the expression profile, not the hERG test; cited from earlier work.
On to `CNc1ncnc2c1ncn2[C@@H]1O[C@H](CO)[C@@H](O)[C@H]1O` [N6-methyladenosine], for which the “Annotation (hERG Active / Inactive)” value is given as “Inactive”.
As to `CC(=O)N[C@@H](CC(=O)O)C(=O)O` [N-acetyl-L-aspartic acid], the “Annotation (hERG Active / Inactive)” value was “Inactive”.
For `COc1ccc(-c2ccc(N)[n+](CCCC(=O)O)n2)cc1` [SR-95531], the “Annotation (hERG Active / Inactive)” value is on record as “Inactive”.
For the compound `COc1ccc(-c2cc(=O)c3c(O)cc(O)cc3o2)cc1` [acacetin], the “Annotation (hERG Active / Inactive)” value is given as “Inactive”.
With `CC(=O)c1ccc(S(=O)(=O)NC(=O)NC2CCCCC2)cc1` [acetohexamide], the “Annotation (hERG Active / Inactive)” value is recorded as “Inactive”.
`CC(=O)Oc1ccccc1C(=O)O` [acetylsalicylic acid]: the “Annotation (hERG Active / Inactive)” value was “Inactive”.
As to `CC(=O)Oc1ccccc1C(=O)Oc1ccccc1C(=O)O` [acetylsalicylsalicylic acid], the “Annotation (hERG Active / Inactive)” value was “Inactive”.
With `CCCSc1ccc2nc(NC(=O)OC)[nH]c2c1` [albendazole], the “Annotation (hERG Active / Inactive)” value is listed as “Inactive”.
With `CC(C)C[C@H]1C(=O)N2CCCC2[C@]2(O)O[C@](NC(=O)[C@@H]3C=C4c5cccc6[nH]cc(c56)CC4N(C)C3)(C(C)C)C(=O)N12` (stereo partly drawn) [alpha-ergocryptine], the “Annotation (hERG Active / Inactive)” value is recorded as “Inactive”.
With `CN(C)c1nc(N(C)C)nc(N(C)C)n1` [altretamine], the “Annotation (hERG Active / Inactive)” value was “Inactive”.
For the compound `Nc1c(Br)cc(Br)cc1CN[C@H]1CC[C@H](O)CC1` [ambroxol], the “Annotation (hERG Active / Inactive)” value is listed as “Inactive”.
Consider `Nc1cc(-c2ccncc2)c[nH]c1=O` [amrinone], for which the “Annotation (hERG Active / Inactive)” value was “Inactive”.
For the compound `COc1ccc(C[C@H]2NC[C@H](O)[C@H]2OC(C)=O)cc1` [anisomycin], the “Annotation (hERG Active / Inactive)” value is “Inactive”.
`c1ccc(CN(CC2=NCCN2)c2ccccc2)cc1` [antazoline]: the “Annotation (hERG Active / Inactive)” value was “Inactive”.
Take `COC(=O)C1=CCCN(C)C1` [arecoline]: the “Annotation (hERG Active / Inactive)” value is “Inactive”.
Turning to `COc1ccc(CC2c3cc(OC)c(OC)cc3CC[N+]2(C)CCC(=O)OCCCCCOC(=O)CC[N+]2(C)CCc3cc(OC)c(OC)cc3C2Cc2ccc(OC)c(OC)c2)cc1OC` (stereo not shown) [atracurium besilate], the “Annotation (hERG Active / Inactive)” value was “Inactive”.
In the case of `CC(Cc1cccc(C(F)(F)F)c1)NCCOC(=O)c1ccccc1` (stereo not shown) [benfluorex], the “Annotation (hERG Active / Inactive)” value is listed as “Inactive”.
In the case of `O=C(CCCN1CCC(n2c(O)nc3ccccc32)CC1)c1ccc(F)cc1` [benperidol], the “Annotation (hERG Active / Inactive)” value is listed as “Active”.
With `NC(CO)C(=O)NNCc1ccc(O)c(O)c1O` (stereo not shown) [benserazide], the “Annotation (hERG Active / Inactive)” value is “Inactive”.
Take `NC(=NCc1ccccc1)NC(=O)c1nc(Cl)c(N)nc1N` [benzamil]: the “Annotation (hERG Active / Inactive)” value is reported as “Active”.
Take `CCOC(=O)c1ccc(N)cc1` [benzocaine]: the “Annotation (hERG Active / Inactive)” value is given as “Inactive”.
Take `CC(C)COCC(CN(Cc1ccccc1)c1ccccc1)N1CCCC1` (stereo not shown) [bepridil]: the “Annotation (hERG Active / Inactive)” value was “Active”.
For the compound `COc1ccc2cc3[n+](cc2c1OC)CCc1cc2c(cc1-3)OCO2` [berberine], the “Annotation (hERG Active / Inactive)” value was “Inactive”.
Consider `C[C@H]1C[C@H]2[C@@H]3CCC4=CC(=O)C=C[C@]4(C)[C@@]3(F)[C@@H](O)C[C@]2(C)[C@@]1(O)C(=O)CO` [betamethasone], for which the “Annotation (hERG Active / Inactive)” value is listed as “Inactive”.
Turning to `NCCc1cc[nH]n1` [betazole], the “Annotation (hERG Active / Inactive)” value is given as “Inactive”.
Take `C=C(C)[C@@H]1CC[C@]2(C(=O)O)CC[C@]3(C)[C@H](CC[C@@H]4[C@@]5(C)CC[C@H](O)C(C)(C)[C@@H]5CC[C@]43C)[C@@H]12` [betulinic acid]: the “Annotation (hERG Active / Inactive)” value is given as “Inactive”.
For the compound `CC(C)NCC(O)COc1ccc(COCCOC(C)C)cc1` (stereo not shown) [bisoprolol], the “Annotation (hERG Active / Inactive)” value is “Inactive”.
In the case of `COc1cc2c(cc1O)C[C@H]1c3c(cc(O)c(OC)c3-2)CCN1C` [boldine], the “Annotation (hERG Active / Inactive)” value is “Active”.
Turning to `CCCC1O[C@@H]2C[C@H]3[C@@H]4CCC5=CC(=O)C=C[C@]5(C)[C@H]4[C@@H](O)C[C@]3(C)[C@]2(C(=O)CO)O1` (stereo partly shown) [budesonide], the “Annotation (hERG Active / Inactive)” value is “Inactive”.
`COc1cc(OC)c(C(=O)CCCN2CCCC2)c(OC)c1` [buflomedil]: the “Annotation (hERG Active / Inactive)” value is on record as “Inactive”.
Take `CCCCNc1cc(C(=O)O)cc(S(N)(=O)=O)c1Oc1ccccc1` [bumetanide]: the “Annotation (hERG Active / Inactive)” value is “Inactive”.
For the compound `O=C1CC2(CCCC2)CC(=O)N1CCCCN1CCN(c2ncccn2)CC1` [buspirone], the “Annotation (hERG Active / Inactive)” value is on record as “Inactive”.
Consider `Clc1ccc(CCC(Cn2ccnc2)Sc2c(Cl)cccc2Cl)cc1` (stereo not shown) [butoconazole], for which the “Annotation (hERG Active / Inactive)” value is listed as “Inactive”.
`CC[C@@]1(O)C(=O)OCc2c1cc1n(c2=O)Cc2cc3ccccc3nc2-1` [camptothecin]: the “Annotation (hERG Active / Inactive)” value was “Inactive”.
`C[C@@]12C(=O)OC(=O)[C@]1(C)[C@H]1CC[C@@H]2O1` [cantharidin]: the “Annotation (hERG Active / Inactive)” value was “Inactive”.
`C[C@H](CS)C(=O)N1CCC[C@H]1C(=O)O` [captopril]: the “Annotation (hERG Active / Inactive)” value is reported as “Inactive”.
Consider `C[N+](C)(C)CCOC(N)=O` [carbachol], for which the “Annotation (hERG Active / Inactive)” value was “Inactive”.
On to `NC(=O)N1c2ccccc2C=Cc2ccccc21` [carbamazepine], for which the “Annotation (hERG Active / Inactive)” value is given as “Inactive”.
Consider `NCCC(=O)NCCc1c[nH]cn1` [carcinine], for which the “Annotation (hERG Active / Inactive)” value is reported as “Inactive”.
As to `N[C@@H](C(=O)N[C@@H]1C(=O)N2C(C(=O)O)=C(Cl)CS[C@H]12)c1ccccc1` [cefaclor], the “Annotation (hERG Active / Inactive)” value is “Inactive”.
Regarding `C=CC1=C(C(=O)O)N2C(=O)[C@@H](NC(=O)/C(=N\OCC(=O)O)c3csc(N)n3)[C@H]2SC1` [cefixime], the “Annotation (hERG Active / Inactive)” value is “Inactive”.
For the compound `CO[C@@]1(NC(=O)CSCC#N)C(=O)N2C(C(=O)O)=C(CSc3nnnn3C)CS[C@@H]21` [cefmetazole], the “Annotation (hERG Active / Inactive)” value is recorded as “Inactive”.
Regarding `CN(C)CCn1nnnc1SCC1=C(C(=O)O)N2C(=O)[C@@H](NC(=O)Cc3csc(N)n3)[C@H]2SC1` [cefotiam], the “Annotation (hERG Active / Inactive)” value was “Inactive”.
`CO[C@@]1(NC(=O)Cc2cccs2)C(=O)N2C(C(=O)O)=C(COC(N)=O)CS[C@@H]21` [cefoxitin]: the “Annotation (hERG Active / Inactive)” value is “Inactive”.
For `CN1CCN(C(c2ccccc2)c2ccc(Cl)cc2)CC1` (stereo not shown) [chlorcyclizine], the “Annotation (hERG Active / Inactive)” value is “Active”.
In the case of `[H]/N=C(\N/C(=N/[H])NCCCCCCNC(=N)NC(=N)Nc1ccc(Cl)cc1)Nc1ccc(Cl)cc1` [chlorhexidine], the “Annotation (hERG Active / Inactive)” value is “Inactive”.
As to `CN(C)CCN(Cc1ccc(Cl)cc1)c1ccccn1` [chloropyramine], the “Annotation (hERG Active / Inactive)” value is on record as “Active”.
Turning to `CN(C)CCCN1c2ccccc2Sc2ccc(Cl)cc21` [chlorpromazine], the “Annotation (hERG Active / Inactive)” value is reported as “Active”.
On to `CN(C)CC/C=C1/c2ccccc2Sc2ccc(Cl)cc21` [chlorprothixene], for which the “Annotation (hERG Active / Inactive)” value is listed as “Active”.
`Cc1cc(C2CCCCC2)n(O)c(=O)c1` [ciclopirox]: the “Annotation (hERG Active / Inactive)” value was “Inactive”.
`CCn1nc(C(=O)O)c(=O)c2cc3c(cc21)OCO3` [cinoxacin]: the “Annotation (hERG Active / Inactive)” value was “Inactive”.
Regarding `CC(C)(Oc1ccc(C2CC2(Cl)Cl)cc1)C(=O)O` (stereo not shown) [ciprofibrate], the “Annotation (hERG Active / Inactive)” value is “Inactive”.
For `C[N+]12CCC(CC1)C(OC(=O)C(O)(c1ccccc1)c1ccccc1)C2` (stereo not shown) [clidinium bromide], the “Annotation (hERG Active / Inactive)” value is on record as “Inactive”.
In the case of `Oc1c(I)cc(Cl)c2cccnc12` [clioquinol], the “Annotation (hERG Active / Inactive)” value is reported as “Inactive”.
Take `CCC(=O)OC1(C(=O)CCl)[C@@H](C)C[C@H]2[C@@H]3CCC4=CC(=O)C=C[C@]4(C)[C@@]3(F)[C@@H](O)C[C@@]21C` (stereo partly shown) [clobetasol]: the “Annotation (hERG Active / Inactive)” value is listed as “Inactive”.
`CCCCCCC[N+](CC)(CC)CCCCc1ccc(Cl)cc1` [clofilium tosylate]: the “Annotation (hERG Active / Inactive)” value is recorded as “Active”.
`Clc1ccccc1C(c1ccccc1)(c1ccccc1)n1ccnc1` [clotrimazole]: the “Annotation (hERG Active / Inactive)” value is listed as “Inactive”.
On to `COc1cc2c(c(OC)c1OC)-c1ccc(OC)c(=O)cc1[C@@H](NC(C)=O)CC2` [colchicine], for which the “Annotation (hERG Active / Inactive)” value is recorded as “Inactive”.
`COc1ccc(C(=O)OC2C[C@H]3CC[C@H](C2)N3C)cc1OC` (stereo partly shown) [convolamine]: the “Annotation (hERG Active / Inactive)” value was “Inactive”.
As for `C[C@]12C[C@H](O)[C@H]3[C@@H](CCC4=CC(=O)CC[C@@]43C)[C@@H]1CC[C@@H]2C(=O)CO` [corticosterone], the “Annotation (hERG Active / Inactive)” value is reported as “Inactive”.
For the compound `C[C@]12CCC(=O)C=C1CC[C@@H]1[C@@H]2C(=O)C[C@@]2(C)[C@H]1CC[C@]2(O)C(=O)CO` [cortisone], the “Annotation (hERG Active / Inactive)” value is reported as “Inactive”.
In the case of `COC(=O)[C@H]1[C@H]2C[C@H]3c4[nH]c5ccccc5c4CCN3C[C@@H]2CC[C@@H]1O` [corynanthine], the “Annotation (hERG Active / Inactive)” value is recorded as “Inactive”.
As for `CN(C)CCC=C1c2ccccc2C=Cc2ccccc21` [cyclobenzaprine], the “Annotation (hERG Active / Inactive)” value is on record as “Inactive”.
Turning to `CN(C)CCOC(=O)C(c1ccccc1)C1(O)CCCC1` (stereo not shown) [cyclopentolate], the “Annotation (hERG Active / Inactive)” value is on record as “Inactive”.
